In US7252822B2, “Methods for treating post-surgical pain by administering an anti-nerve growth factor antagonist” (Rinat Neuroscience Corp., priority 2002, dated 2007):

Legend:
[1] = test system: Male Sprague-Dawley rats; assay: Wound healing after dorsal skin incision: proportion of intact wounds; type: in vivo; conditions: rat, 5 mg/kg daily for five days intramuscularly, positive control; p<0.0005 vs saline or 911; FIG. 8
Source text: Male Sprague-Dawley rats weighing 250-350 grams were purchased from Harlan (Wisconsin) were brought into the facility and acclimated for at least one week. Animals were anaesthetized with isoflurane and the dorsal surface (back) was shaved and cleaned with povidone iodine followed by an alcohol pad. A 2.5 cm incision through the skin was made on the midline between the scapulae. Bleeding was controlled with pressure with a gauze pad. The wound was closed with four single 4-0 ethilon sutures and the animals were allowed to recover. Animals were then divided into three groups: one group receiving a single does of mouse monoclonal anti-NGF antibody 911 at the time of surgery (1 mg/kg, i.p.); one group receiving Ketorolac (5 mg/kg daily for five days starting the day of surgery, intramuscularly (IMO) as a positive control; and a saline treated control group (negative control). Ketoralac is known to inhibit wound healing. Haws et al. (1996) Ann Plast Surg. 37(2):147-51; Gerstenfeld et al. (2003) J Orthop Res. 21(4):670-5.
The area of the incision was examined and photographed daily starting at day one post surgery. […] Incisions were scored as “intact” if the entire incision remained closed, and “failed” if some or all of the incision re-opened. Results were expressed as the proportion of intact wounds (i.e., the number of intact wounds divided by the total number of animals scored).

[2] = test system: Male Sprague Dawley rats; assay: Post-surgical pain model (hind paw incision): resting pain, cumulative pain score; type: in vivo; conditions: rat
Description: We used a pain model that mimics post surgical pain to assess the efficacy of treatment with anti-NGF antibody 911 (a mouse monoclonal antibody; see Hongo, et al., Hybridoma 19:215-227 (2000). Each experiment involved 16 animals (n=8 per group). The anti-NGF antibody was injected intra peritoneal (i.p.) at various concentratiosn per experiment (35 or 7 milligrams per kilogram) 15 hours pre-incision. The control group received no antibody but was injected i.p. with a saline solution.
Animals. Male Sprague Dawley rats weighting between 220-240 grams were purchased from Harlan (San Diego) and acclimated to the animal facility for one week prior to surgery.
Surgery. The surgery was based on the procedure described by Brennan, et al. Pain 64:493-501 (1996). Animals were anesthetized with a 2% isoflurane in air mixture that was maintained during surgery via a nose cone. The plantar surface of the right hind paw was prepared with a povidone-iodine pad, and a 1-cm central longitudinal incision was made through skin and fascia, starting 0.5 cm from the edge of the heel and extending toward the toes. Measurements were made with a ruler with the foot held in a flexed position. The plantaris muscle was elevated using curved forceps and incised longitudinally. The muscle was incised through its full depth, between the origin and insertion. Bleeding was controlled throughout surgery by pressure applied through a gauze pad. The wound was closed with two mattress sutures (5-0 ethilon black monofilament). These sutures were knotted 5-6 times, with the first knot loosely tied. The wound site was swabbed with bacitracin solution. Animals were allowed to recover and rest in clean cages for two hours or more before behavioral testing began.
Evaluating resting pain. A cumulative pain score was used to assess pain related to weight bearing. Animals were placed on a plastic mesh (grid: 8 mm^2) in clear plastic cages that were elevated on a platform (h: 18″) allowing inspection of the underside of their paws. After a 20 minute acclimation period, weight bearing was assessed on a scale of 0 to 2. A score of 0 was given if the paw was blanched or pressed against the mesh, indicating full weight bearing. A score of 1 was given if the paw was favored with the skin just touching the mesh, with no blanching or indentation of the skin. A score of 2 was given if the paw was held completely off the mesh. Flinching the paw was considered a 2 if the rat was still at rest. […] The sum of 6 scores (0-12) obtained during ½ hour was used to assess pain in the incised foot. Frequency of scores of 2 was also calculated and used to assess the incidence of severe pain or total guarding of the paw by the animal. Each animal was tested 24 hours before surgery (baseline), and 2 h, 24 h, 48 h, and 72 h postoperatively. […]

[3] = target: T1, human NGF (human, UniProt P01138 122-239, limits assumed); assay: binding affinity; method not given
T1 construct: also called hNGF; human nerve growth factor
T1 sequence (P01138 122-239 limits assumed): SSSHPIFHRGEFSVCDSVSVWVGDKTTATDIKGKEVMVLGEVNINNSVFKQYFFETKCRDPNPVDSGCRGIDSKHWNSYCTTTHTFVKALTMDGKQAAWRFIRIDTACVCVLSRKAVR

O=C(c1ccccc1)c1ccc2n1CCC2C(=O)O (stereo not drawn) [ketorolac]
wound healing (proportion of intact wounds) [1]: significantly inhibited

COC(=O)[C@@]1(O)C[C@H]2O[C@]1(C)n1c3ccccc3c3c4c(c5c6ccccc6n2c5c31)C(=O)NC4 [K252a]
cumulative resting pain score three hours after dosing ([2]; in vivo, ip, 4 mg/kg): significantly reduced resting pain | resting pain reduction compared with anti-NGF antibody in similar experiments ([2]; in vivo, ip, 4 mg/kg): reduced resting pain to the same extent that treatment with anti-NGF antibody did

B1: humanized anti-NGF antibody E3 (antibody, V domains shown)
VH: QVQLQESGPGLVKPSETLSLTCTVSGFSLIGYDLNWIRQPPGKGLEWIGIIWGDGTTDYNSAVKSRVTISKDTSKNQFSLKLSSVTAADTAVYYCARGGYWYATSYYFDYWGQGTLVTVS
VL: DIQMTQSPSSLSASVGDRVTITCRASQSISNNLNWYQQKPGKAPKLLIYYTSRFHSGVPSRFSGSGSGTDFTFTISSLQPEDIATYYCQQEHTLPYTFGQGTKLEIKR
Kd [3]: ~0.07 nM

B2: E3: humanized mouse anti-NGF monoclonal antibody; human IgG2a constant region with A330P331 to S330S331, kappa light chain, variable regions SEQ ID NO:1 and 2 (antibody, V domains shown)
VH: QVQLQESGPGLVKPSETLSLTCTVSGFSLIGYDLNWIRQPPGKGLEWIGIIWGDGTTDYNSAVKSRVTISKDTSKNQFSLKLSSVTAADTAVYYCARGGYWYATSYYFDYWGQGTLVTVS
VL: DIQMTQSPSSLSASVGDRVTITCRASQSISNNLNWYQQKPGKAPKLLIYYTSRFHSGVPSRFSGSGSGTDFTFTISSLQPEDIATYYCQQEHTLPYTFGQGTKLEIKRT
resting pain (cumulative pain score) 24 hours after surgery ([2]; 0.02 mg/kg to 1 mg/kg i.p. 15 hours pre-incision, p<0.05 vs saline, FIG. 4): significantly reduced resting pain | resting pain (cumulative pain score) 24 hours after surgery ([2]; 0.5 mg/kg i.v. two hours after incision, vs saline, FIG. 5): significantly (p<0.05) reduced resting pain
